{"source": "paper PMC10443802", "about": "“Targeting a xenobiotic transporter to ameliorate vincristine-induced sensory neuropathy” (JCI Insight, 2023)", "key": {"[1]": {"target": "hOATP1A2 (Homo sapiens, UniProt P46721)", "sequence (P46721 whole entry)": "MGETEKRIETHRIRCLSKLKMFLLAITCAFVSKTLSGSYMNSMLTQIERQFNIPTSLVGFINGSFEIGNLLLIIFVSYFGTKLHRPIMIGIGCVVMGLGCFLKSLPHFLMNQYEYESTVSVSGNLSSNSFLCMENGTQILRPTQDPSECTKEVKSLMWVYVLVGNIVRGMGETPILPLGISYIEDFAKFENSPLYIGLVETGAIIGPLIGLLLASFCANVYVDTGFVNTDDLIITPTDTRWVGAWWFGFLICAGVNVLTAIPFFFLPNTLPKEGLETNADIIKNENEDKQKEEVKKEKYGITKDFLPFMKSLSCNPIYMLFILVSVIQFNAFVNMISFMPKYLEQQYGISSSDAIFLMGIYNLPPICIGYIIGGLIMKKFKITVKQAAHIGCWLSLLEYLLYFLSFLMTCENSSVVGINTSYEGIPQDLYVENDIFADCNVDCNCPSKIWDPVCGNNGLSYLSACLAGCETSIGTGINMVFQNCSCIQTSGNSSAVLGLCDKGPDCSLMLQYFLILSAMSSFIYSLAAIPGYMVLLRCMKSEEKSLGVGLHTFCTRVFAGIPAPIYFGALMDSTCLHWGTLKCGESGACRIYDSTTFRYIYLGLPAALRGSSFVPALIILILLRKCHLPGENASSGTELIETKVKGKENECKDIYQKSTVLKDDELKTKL", "test": "Vincristine uptake screen, HeLa cells overexpressing hOATP1A2", "format": "in vitro ADME", "experimental": "Relative uptake is expressed as percentage change compared with empty vector controls (n = 4–14 per group). […] Human OATP1B1 and OATP1B3 transporter–overexpressed cells were used as positive controls; empty vector controls were used as the negative control. […] Mechanical allodynia (C), thermal hyperalgesia (D), and sciatic nerve maximal action potential amplitudes (E) are expressed as percentage change relative to baseline values (n = 6–8 per group). Statistical analysis was performed using a 2-way ANOVA with Bonferroni’s post hoc test. **P < 0.01, ***P < 0.001, ****P < 0.0001, compared with baseline values. […] Data are shown as mean ± SEM. […]\ntransfected with transporters of interest, including hOAT1, hOAT3, hOAT4, hOATP1A2, hOATP3A1, hOATP4A1, hOATP5A1, hOATP1C1, hOATP1B1, hOATP1B3, hOATP2B1, hOCT1, hOCT2, hOCTN1, hOCTN2, hASBT, hNTCP, hNPT1, hMATE1, hOSTα/β, hPEPT1, hPEPT2, rOatp1a1, rOatp1a4, rOatp1a5, rOatp1b2, rNtcp, rAsbt, rOat1, and rOct1. Cells were transfected with expression plasmid or vector control lacking any insert using Lipofectin reagent (Invitrogen). […] The cellular radioactivity was quantified by liquid scintillation counting as described above. […]\nSamples were analyzed using real-time quantitative PCR and Taqman Probes (Applied Biosystems). The relative gene expression was determined using the ΔΔCt method, and normalized to the mouse or human housekeeping gene, GAPDH. […]"}, "[2]": {"target": "T1, mOATP1B2 (Mus musculus, UniProt Q9JJL3)", "T1 sequence (Q9JJL3 1-689)": "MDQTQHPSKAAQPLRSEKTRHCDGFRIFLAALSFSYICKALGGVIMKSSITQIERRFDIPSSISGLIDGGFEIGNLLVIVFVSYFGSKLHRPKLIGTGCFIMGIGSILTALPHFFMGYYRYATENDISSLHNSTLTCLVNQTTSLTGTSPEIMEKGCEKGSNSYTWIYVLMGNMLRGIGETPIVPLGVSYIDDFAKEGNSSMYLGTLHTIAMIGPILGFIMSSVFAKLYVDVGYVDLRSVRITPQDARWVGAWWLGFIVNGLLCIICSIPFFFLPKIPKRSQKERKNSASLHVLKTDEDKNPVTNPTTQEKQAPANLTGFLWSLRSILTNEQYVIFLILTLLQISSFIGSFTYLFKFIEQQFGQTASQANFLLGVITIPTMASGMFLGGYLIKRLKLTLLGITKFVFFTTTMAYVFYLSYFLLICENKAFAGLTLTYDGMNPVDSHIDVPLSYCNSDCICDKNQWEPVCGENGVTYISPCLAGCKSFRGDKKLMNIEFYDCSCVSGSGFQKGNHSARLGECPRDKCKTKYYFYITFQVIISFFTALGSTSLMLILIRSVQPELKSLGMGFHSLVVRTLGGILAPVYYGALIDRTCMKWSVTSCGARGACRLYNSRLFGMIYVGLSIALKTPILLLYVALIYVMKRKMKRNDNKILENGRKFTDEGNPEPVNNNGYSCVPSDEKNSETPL", "test": "Vincristine uptake, HEK293 cells overexpressing mOATP1B2", "format": "in vitro ADME", "excerpt": "Relative uptake is expressed as percentage change compared with empty vector controls (n = 4–14 per group). […] Human OATP1B1 and OATP1B3 transporter–overexpressed cells were used as positive controls; empty vector controls were used as the negative control. LD, 100 bp ladder. […] Mechanical allodynia (C), thermal hyperalgesia (D), and sciatic nerve maximal action potential amplitudes (E) are expressed as percentage change relative to baseline values (n = 6–8 per group). Statistical analysis was performed using a 2-way ANOVA with Bonferroni’s post hoc test. **P < 0.01, ***P < 0.001, ****P < 0.0001, compared with baseline values. […] Data are shown as mean ± SEM.\nAxioskop WideField Light Microscope, as described previously (10). Representative images were captured with a QIClick Digital CCD color camera.\nThe histograms of g-ratio (axonal diameter/whole fiber diameter as a measure of myelination degree in each fiber) distribution were generated. An observer blinded to the group compositions performed all the morphometric determinations. […]\nAfter incubation, transport was halted by aspirating radiolabeled drug, and rinsing the cells three times with ice-cold 1X PBS. Total radioactivity originating from the substrates was measured by lysing the cells with 1N NaOH, neutralized with 2N HCL, and measuring total radioactivity by liquid scintillation counting using an LS 6500 Counter (Beckman). […]"}, "[3]": {"target": "hMATE1 (Homo sapiens, UniProt Q96FL8)", "sequence (Q96FL8 whole entry)": "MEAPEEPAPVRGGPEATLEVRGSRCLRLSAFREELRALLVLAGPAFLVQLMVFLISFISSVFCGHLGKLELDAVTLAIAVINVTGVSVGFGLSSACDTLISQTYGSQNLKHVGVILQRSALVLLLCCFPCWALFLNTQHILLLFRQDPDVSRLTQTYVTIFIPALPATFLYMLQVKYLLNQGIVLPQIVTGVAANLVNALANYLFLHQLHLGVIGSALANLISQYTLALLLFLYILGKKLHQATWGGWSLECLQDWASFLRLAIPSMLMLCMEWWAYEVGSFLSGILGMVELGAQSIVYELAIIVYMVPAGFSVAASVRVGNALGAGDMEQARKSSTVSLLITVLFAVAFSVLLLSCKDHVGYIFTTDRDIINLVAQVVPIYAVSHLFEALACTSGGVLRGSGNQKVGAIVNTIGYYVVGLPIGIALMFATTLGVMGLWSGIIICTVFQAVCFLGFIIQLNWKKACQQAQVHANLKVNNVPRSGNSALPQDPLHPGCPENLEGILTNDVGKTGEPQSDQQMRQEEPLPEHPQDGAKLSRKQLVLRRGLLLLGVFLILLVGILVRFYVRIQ", "test": "Substrate uptake in HEK293 cells overexpressing hMATE1", "settings": "HEK293 human MATE1", "method": "on OATP1B1, OATP1B3, or OATP1B2 function was evaluated using EβG (Axxora LLC) as the\ntransfected with transporters of interest, including hOAT1, hOAT3, hOAT4, hOATP1A2, hOATP3A1, hOATP4A1, hOATP5A1, hOATP1C1, hOATP1B1, hOATP1B3, hOATP2B1, hOCT1, hOCT2, hOCTN1, hOCTN2, hASBT, hNTCP, hNPT1, hMATE1, hOSTα/β, hPEPT1, hPEPT2, rOatp1a1, rOatp1a4, rOatp1a5, rOatp1b2, rNtcp, rAsbt, rOat1, and rOct1. Cells were transfected with expression plasmid or vector control lacking any insert using Lipofectin reagent (Invitrogen). Sixteen hours thereafter, cells were washed with transport media (OPTIMEM, Invitrogen) and treated with radiolabeled drug. At various time intervals, cells were washed three times with ice-cold PBS and then lysed with 1% sodium dodecyl sulfate. The cellular radioactivity was quantified by liquid scintillation counting as described above. Similar analyses were performed in HEK293 cells transfected with hOATP1A2, hOATP1C1, mMATE1, and hMATE1, with cells seeded in poly lysine pre-coated 12-well plates. For hOATP1A2 and hOATP1C1, transient transfections were performed with either an empty vector, OATP1A2, or OATP1C1 using Lipofectamine 2000 according to the manufacturers protocol (Invitrogen)."}}, "note": "Several values for one entry are separate records, joined by “and”; a condition that tells them apart may be missing. Equal entries are not always repeated.", "data": [{"compound": "CC[C@]1(O)C[C@H]2CN(CCc3c([nH]c4ccccc34)[C@@](C(=O)OC)(c3cc4c(cc3OC)N(C=O)[C@H]3[C@@](O)(C(=O)OC)[C@H](OC(C)=O)[C@]5(CC)C=CCN6CC[C@]43[C@@H]65)C2)C1", "note": "[Vincristine, vincristine]", "values": [{"measurement": "Vincristine uptake (% of vector control)", "setting": "[1]", "result": "186.00 % of vector control and 176.00 % of vector control and 142.00 % of vector control and 167.00 % of vector control and 183.00 % of vector control and 171.00 % of vector control and 148.00 % of vector control and 164.00 % of vector control"}, {"measurement": "Vincristine uptake (% of vector control)", "setting": "[2]", "result": "209.00 % of vector control and 219.00 % of vector control and 238.00 % of vector control and 218.00 % of vector control and 216.00 % of vector control and 220.00 % of vector control"}, {"measurement": "Contribution of transporter to cellular uptake of vincristine", "setting": "[3]", "result": "do not appreciably contribute to the cellular uptake of vincristine"}]}]}
